What was measured:
S. pneumoniae D39V [1] = assay: fitness (endpoint OD595 vs no drug) (fraction); higher = more growth
Method in brief: (§1)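 Fitness was measured as bacterial growth in 384-well plates inoculated at OD595 0.01 (30 µl, or 55 µl for S. pneumoniae). Media were TSB, LB Lennox or CY, at 37 °C. OD595 was read every 30 min for 14 h and background-subtracted against the first reading. Fitness is OD595 at the transition into stationary phase divided by the robust mean of no-drug control wells, capped at 1.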

B. subtilis 168 [2] = assay: as above
Method in brief: as §1

S. aureus Newman [3] = assay: as above
Method in brief: as §1

S. aureus DSM 20231 = assay: Bliss interaction score (quartile over a dose matrix) (fitness difference); higher = more antagonism (negative = synergy)
Method in brief: (§2)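 Fitness was OD595 at entry into stationary phase divided by the plate's robust no-drug mean and capped at 1; single-drug fitness was inferred from combination data. The Bliss score is observed minus expected (product) fitness, summarised by quartiles over technical, biological and donor/recipient replicates.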

S. pneumoniae D39V [4] = assay: as above
Method in brief: as §2

B. subtilis 168 [5] = assay: as above
Method in brief: as §2

S. aureus Newman [6] = assay: as above
Method in brief: as §2
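Wherever Bliss interaction score (quartile over a dose matrix) is given: first quartile when negative (synergy) and third quartile when positive (antagonism).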

O=C(O)c1cn(C2CC2)c2cc(N3CCNCC3)c(F)cc2c1=O [Ciprofloxacin] + CN[C@@H]1[C@H](O[C@H]2[C@H](O[C@H]3[C@H](O)[C@@H](O)[C@H](N=C(N)N)[C@@H](O)[C@@H]3N=C(N)N)O[C@@H](C)[C@]2(O)C=O)O[C@@H](CO)[C@H](O)[C@H]1O [Streptomycin]
fitness
Conditions | partner 1 µg/mL | partner 2 µg/mL | partner 4 µg/mL | partner 8 µg/mL
B. subtilis 168 [2], first compound 0.0098 µg/mL | – | 0.861 | – | –
B. subtilis 168 [2], first compound 0.0195 µg/mL | – | 0.601 | – | –
B. subtilis 168 [2], first compound 0.039 µg/mL | – | 0.0408 | 0.0521 | 0.0363
S. aureus Newman [3], first compound 0.0375 µg/mL | 0.737 | 0.7 | – | –
S. aureus Newman [3], first compound 0.075 µg/mL | 0.68 | 0.65 | – | –
S. aureus Newman [3], first compound 0.15 µg/mL | – | 0.0504 | 0.066 | –
S. pneumoniae D39V [1], first compound 0.125 µg/mL | – | 0.916 | 0.936 | 0.909
S. pneumoniae D39V [1], first compound 0.25 µg/mL | – | 0.872 | 0.774 | 0.765

S. pneumoniae D39V [1], partner 16 µg/mL, one replicate
Conditions | fitness
first compound 0.125 µg/mL | 0.739
first compound 0.25 µg/mL | 0.668
first compound 0.5 µg/mL | 0.379

Conditions | Bliss interaction score
B. subtilis 168 [5] | -0.109
S. aureus DSM 20231 | -0.0869
S. aureus Newman [6] | 0.0876
S. pneumoniae D39V [4] | -0.0549

O=C(O)c1cn(C2CC2)c2cc(N3CCNCC3)c(F)cc2c1=O [Ciprofloxacin] + COc1c(N2C[C@@H]3CCCN[C@@H]3C2)c(F)cc2c(=O)c(C(=O)O)cn(C3CC3)c12 [Moxifloxacin]
Conditions | fitness
B. subtilis 168 [2], first compound 0.0098 µg/mL, partner 0.0625 µg/mL | 0.051
B. subtilis 168 [2], first compound 0.0098 µg/mL, partner 0.125 µg/mL | 0.055
B. subtilis 168 [2], first compound 0.0098 µg/mL, partner 2 µg/mL | 0.0402
B. subtilis 168 [2], first compound 0.0098 µg/mL, partner 4 µg/mL | 0.0314
B. subtilis 168 [2], first compound 0.0098 µg/mL, partner 8 µg/mL | 0.0305
B. subtilis 168 [2], first compound 0.0195 µg/mL, partner 0.0312 µg/mL | 0.0426
B. subtilis 168 [2], first compound 0.0195 µg/mL, partner 0.0625 µg/mL | 0.0567
B. subtilis 168 [2], first compound 0.0195 µg/mL, partner 0.125 µg/mL | 0.0402
B. subtilis 168 [2], first compound 0.0195 µg/mL, partner 2 µg/mL | 0.0358
B. subtilis 168 [2], first compound 0.0195 µg/mL, partner 4 µg/mL | 0.027
B. subtilis 168 [2], first compound 0.0195 µg/mL, partner 8 µg/mL | 0.0243
B. subtilis 168 [2], first compound 0.039 µg/mL, partner 0.0312 µg/mL | 0.0379
B. subtilis 168 [2], first compound 0.039 µg/mL, partner 0.0625 µg/mL | 0.0522
B. subtilis 168 [2], first compound 0.039 µg/mL, partner 0.125 µg/mL | 0.0269
B. subtilis 168 [2], first compound 0.039 µg/mL, partner 2 µg/mL | 0.038
B. subtilis 168 [2], first compound 0.039 µg/mL, partner 4 µg/mL | 0.0353
B. subtilis 168 [2], first compound 0.039 µg/mL, partner 8 µg/mL | 0.0328
S. aureus Newman [3], first compound 0.0375 µg/mL, partner 0.0075 µg/mL | 0.579
S. aureus Newman [3], first compound 0.0375 µg/mL, partner 0.015 µg/mL | 0.414
S. aureus Newman [3], first compound 0.0375 µg/mL, partner 0.03 µg/mL | 0.0123
S. aureus Newman [3], first compound 0.075 µg/mL, partner 0.0075 µg/mL | 0.322
S. aureus Newman [3], first compound 0.075 µg/mL, partner 0.015 µg/mL | 0.0421
S. aureus Newman [3], first compound 0.075 µg/mL, partner 0.03 µg/mL | 0.0176
S. aureus Newman [3], first compound 0.15 µg/mL, partner 0.0075 µg/mL | 0.0344
S. aureus Newman [3], first compound 0.15 µg/mL, partner 0.015 µg/mL | 0.03
S. aureus Newman [3], first compound 0.15 µg/mL, partner 0.03 µg/mL | 0.0119
S. pneumoniae D39V [1], first compound 0.125 µg/mL, partner 0.005 µg/mL | 0.944
S. pneumoniae D39V [1], first compound 0.125 µg/mL, partner 0.01 µg/mL | 0.944
S. pneumoniae D39V [1], first compound 0.125 µg/mL, partner 0.02 µg/mL | 0.882
S. pneumoniae D39V [1], first compound 0.125 µg/mL, partner 0.0312 µg/mL | 0.0716
S. pneumoniae D39V [1], first compound 0.125 µg/mL, partner 0.0625 µg/mL | 0.0294
S. pneumoniae D39V [1], first compound 0.125 µg/mL, partner 0.125 µg/mL | 0.0127
S. pneumoniae D39V [1], first compound 0.25 µg/mL, partner 0.005 µg/mL | 0.887
S. pneumoniae D39V [1], first compound 0.25 µg/mL, partner 0.01 µg/mL | 0.892
S. pneumoniae D39V [1], first compound 0.25 µg/mL, partner 0.02 µg/mL | 0.812
S. pneumoniae D39V [1], first compound 0.5 µg/mL, partner 0.005 µg/mL | 0.686
S. pneumoniae D39V [1], first compound 0.5 µg/mL, partner 0.01 µg/mL | 0.692
S. pneumoniae D39V [1], first compound 0.5 µg/mL, partner 0.02 µg/mL | 0.628
S. pneumoniae D39V [1], first compound 0.5 µg/mL, partner 0.0312 µg/mL | 0.0441
S. pneumoniae D39V [1], first compound 0.5 µg/mL, partner 0.0625 µg/mL | 0.0537
S. pneumoniae D39V [1], first compound 0.5 µg/mL, partner 0.125 µg/mL | 0.0249

S. pneumoniae D39V [1], first compound 0.25 µg/mL, one replicate
Conditions | fitness
partner 0.0312 µg/mL | 0.0113
partner 0.0625 µg/mL | 0.0007
partner 0.125 µg/mL | 0

Conditions | Bliss interaction score
B. subtilis 168 [5] | 0.026
S. aureus DSM 20231 | -0.117
S. aureus Newman [6] | -0.2
S. pneumoniae D39V [4] | -0.0855

O=C(O)c1cn(C2CC2)c2cc(N3CCNCC3)c(F)cc2c1=O [Ciprofloxacin] + COc1ccc(C[C@H](N)C(=O)N[C@H]2[C@@H](O)[C@H](n3cnc4c(N(C)C)ncnc43)O[C@@H]2CO)cc1 [Puromycin]
Conditions | fitness
B. subtilis 168 [2], first compound 0.0098 µg/mL, partner 0.39 µg/mL | 0.918
B. subtilis 168 [2], first compound 0.0098 µg/mL, partner 0.78 µg/mL | 0.956
B. subtilis 168 [2], first compound 0.0098 µg/mL, partner 1.56 µg/mL | 0.842
B. subtilis 168 [2], first compound 0.0195 µg/mL, partner 0.39 µg/mL | 0.721
B. subtilis 168 [2], first compound 0.0195 µg/mL, partner 0.78 µg/mL | 0.721
B. subtilis 168 [2], first compound 0.0195 µg/mL, partner 1.56 µg/mL | 0.683
B. subtilis 168 [2], first compound 0.039 µg/mL, partner 0.39 µg/mL | 0.0586
B. subtilis 168 [2], first compound 0.039 µg/mL, partner 0.78 µg/mL | 0.0556
B. subtilis 168 [2], first compound 0.039 µg/mL, partner 1.56 µg/mL | 0.0555
S. aureus Newman [3], first compound 0.0375 µg/mL, partner 0.39 µg/mL | 0.679
S. aureus Newman [3], first compound 0.0375 µg/mL, partner 0.78 µg/mL | 0.635
S. aureus Newman [3], first compound 0.0375 µg/mL, partner 1.56 µg/mL | 0.651
S. aureus Newman [3], first compound 0.075 µg/mL, partner 0.39 µg/mL | 0.577
S. aureus Newman [3], first compound 0.075 µg/mL, partner 0.78 µg/mL | 0.522
S. aureus Newman [3], first compound 0.075 µg/mL, partner 1.56 µg/mL | 0.422
S. aureus Newman [3], first compound 0.15 µg/mL, partner 0.39 µg/mL | 0.0435
S. aureus Newman [3], first compound 0.15 µg/mL, partner 0.78 µg/mL | 0.0274
S. aureus Newman [3], first compound 0.15 µg/mL, partner 1.56 µg/mL | 0.0296
S. pneumoniae D39V [1], first compound 0.125 µg/mL, partner 1 µg/mL | 0.944
S. pneumoniae D39V [1], first compound 0.125 µg/mL, partner 2 µg/mL | 0.92
S. pneumoniae D39V [1], first compound 0.125 µg/mL, partner 4 µg/mL | 0.492
S. pneumoniae D39V [1], first compound 0.25 µg/mL, partner 1 µg/mL | 0.808
S. pneumoniae D39V [1], first compound 0.25 µg/mL, partner 2 µg/mL | 0.846
S. pneumoniae D39V [1], first compound 0.25 µg/mL, partner 4 µg/mL | 0.51
S. pneumoniae D39V [1], first compound 0.5 µg/mL, partner 4 µg/mL | 0.347

Conditions | Bliss interaction score
B. subtilis 168 [5] | -0.118
S. aureus DSM 20231 | -0.135
S. aureus Newman [6] | -0.132
S. pneumoniae D39V [4] | -0.0901

O=C(O)c1cn(C2CC2)c2cc(N3CCNCC3)c(F)cc2c1=O [Ciprofloxacin] + COc1cccc2c1C(=O)c1c(O)c3c(c(O)c1C2=O)C[C@@](O)(C(=O)CO)C[C@@H]3O[C@H]1C[C@H](N)[C@H](O)[C@H](C)O1 [Doxorubicin]
Conditions | fitness
B. subtilis 168 [2], first compound 0.0098 µg/mL, partner 0.625 µg/mL | 0.908
B. subtilis 168 [2], first compound 0.0098 µg/mL, partner 1.25 µg/mL | 0.872
B. subtilis 168 [2], first compound 0.0195 µg/mL, partner 0.625 µg/mL | 0.702
B. subtilis 168 [2], first compound 0.0195 µg/mL, partner 1.25 µg/mL | 0.628
B. subtilis 168 [2], first compound 0.039 µg/mL, partner 0.625 µg/mL | 0.186
B. subtilis 168 [2], first compound 0.039 µg/mL, partner 1.25 µg/mL | 0.131
B. subtilis 168 [2], first compound 0.039 µg/mL, partner 2.5 µg/mL | 0.037
S. aureus Newman [3], first compound 0.0375 µg/mL, partner 0.625 µg/mL | 0.634
S. aureus Newman [3], first compound 0.0375 µg/mL, partner 1.25 µg/mL | 0.667
S. aureus Newman [3], first compound 0.0375 µg/mL, partner 2.5 µg/mL | 0.658
S. aureus Newman [3], first compound 0.075 µg/mL, partner 0.625 µg/mL | 0.689
S. aureus Newman [3], first compound 0.075 µg/mL, partner 1.25 µg/mL | 0.698
S. aureus Newman [3], first compound 0.075 µg/mL, partner 2.5 µg/mL | 0.642
S. aureus Newman [3], first compound 0.15 µg/mL, partner 1.25 µg/mL | 0.203
S. aureus Newman [3], first compound 0.15 µg/mL, partner 2.5 µg/mL | 0.15
S. pneumoniae D39V [1], first compound 0.125 µg/mL, partner 0.25 µg/mL | 0.899
S. pneumoniae D39V [1], first compound 0.125 µg/mL, partner 0.5 µg/mL | 0.914
S. pneumoniae D39V [1], first compound 0.125 µg/mL, partner 1 µg/mL | 0.821
S. pneumoniae D39V [1], first compound 0.25 µg/mL, partner 0.25 µg/mL | 0.745
S. pneumoniae D39V [1], first compound 0.25 µg/mL, partner 0.5 µg/mL | 0.774
S. pneumoniae D39V [1], first compound 0.25 µg/mL, partner 1 µg/mL | 0.694

Conditions | Bliss interaction score
B. subtilis 168 [5] | -0.0827
S. aureus DSM 20231 | 0.154
S. aureus Newman [6] | 0.193
S. pneumoniae D39V [4] | -0.0454
